These results are taken from US20070219186A1, “Pyrazolo[1,5-A]pyrimidine derivatives and methods of use thereof” (priority 2006, published 2007).

Broadly, the IC50 is the concentration that gives 50% inhibition.

Where two headings read alike, the source gives them in different places.

The target in the test is T1, human B-Raf (Homo sapiens, UniProt P15056).
T1 construct: Flag; GST; made in house; host or cells: Sf9 insect cells (B-Raf); E. coli (MEK1-GST)
Nature of the test: B-Raf Kinase to MEK1 ELISA. The following applies: for inhibition at 10 µM: read-out: % Inhib./10 uM; for % Inhib./10 uM: single point assay. Format: biochemical. In a few lines: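 Flag/GST-tagged human B-Raf (Sf9, ~20 ng/point) phosphorylates non-active GST-MEK1 (50 nM final) with ATP and MgCl2 in MOPS pH 7.2 buffer, 60 min at RT. Product is captured on anti-GST plates; MEK1 pSer217/221 is read by phospho-antibody plus europium conjugate (DELFIA).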
On the technique in general: ELISA stands for enzyme-linked immunosorbent assay.

The mark [1] stands for this setting: median, cpd concentrations from 10 μM to 30 nM in half log dilutions, read-out: Median IC50.

T1 sequence (P15056 whole entry): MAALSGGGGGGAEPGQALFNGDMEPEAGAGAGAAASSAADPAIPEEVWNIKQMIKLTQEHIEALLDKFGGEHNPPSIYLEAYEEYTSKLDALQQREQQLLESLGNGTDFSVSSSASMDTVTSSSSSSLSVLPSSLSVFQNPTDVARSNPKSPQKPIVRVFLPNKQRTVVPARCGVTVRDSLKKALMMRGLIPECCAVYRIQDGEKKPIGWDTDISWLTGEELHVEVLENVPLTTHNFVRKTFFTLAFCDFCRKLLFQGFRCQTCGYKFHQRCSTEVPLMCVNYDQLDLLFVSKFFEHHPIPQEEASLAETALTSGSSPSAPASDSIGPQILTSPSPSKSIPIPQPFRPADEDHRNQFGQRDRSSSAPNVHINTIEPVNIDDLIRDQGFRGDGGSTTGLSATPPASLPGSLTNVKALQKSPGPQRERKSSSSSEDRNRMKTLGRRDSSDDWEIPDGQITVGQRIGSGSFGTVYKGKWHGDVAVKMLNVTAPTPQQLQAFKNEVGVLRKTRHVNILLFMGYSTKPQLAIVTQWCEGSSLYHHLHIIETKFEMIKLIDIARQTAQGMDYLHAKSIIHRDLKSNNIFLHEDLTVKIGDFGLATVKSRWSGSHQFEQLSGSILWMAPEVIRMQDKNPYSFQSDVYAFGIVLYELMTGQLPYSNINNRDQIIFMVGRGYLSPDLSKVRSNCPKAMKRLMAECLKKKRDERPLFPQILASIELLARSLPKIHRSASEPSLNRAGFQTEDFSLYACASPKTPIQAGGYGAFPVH

Take `CC(=O)NCC(=O)Nc1cccc(-c2cnn3c(-c4cccc(NC(=O)c5cccc(C(F)(F)F)c5)c4)ccnc23)c1` [Example 255, N-[3-(3-{3-[(N-acetylglycyl)amino]phenyl}pyrazolo[1,5-a]pyrimidin-7-yl)phenyl]-3-(trifluoromethyl)benzamide]: the inhibition at 10 µM was found to be 91%. In addition, the IC50 under setting [1] was 0.049 µM.

As for `O=C(Cc1nnn[nH]1)Nc1cccc(-c2cnn3c(-c4cccc(NC(=O)c5cccc(C(F)(F)F)c5)c4)ccnc23)c1` [Example 256, N-[3-(3-{3-[(1H-tetrazol-5-ylacetyl)amino]phenyl}pyrazolo[1,5-a]pyrimidin-7-yl)phenyl]-3-(trifluoromethyl)benzamide], the inhibition at 10 µM is 97%. Also, the concentration for half-maximal inhibition (IC50) under setting [1] came to 0.122 µM.

Regarding `CN(C)CCCNc1cc(-c2cc3nccc(-c4cccc(NC(=O)c5cccc(C(F)(F)F)c5)c4)n3n2)ccn1` [Example 257, N-{3-[2-(2-{[3-(dimethylamino)propyl]amino}pyridin-4-yl)pyrazolo[1,5-a]pyrimidin-7-yl]phenyl}-3-(trifluoromethyl)benzamide], the inhibition at 10 µM amounted to 97%. For the same compound, under setting [1], the IC50 stood at 0.0745 µM.

In the case of `O=C(Nc1cccc(-c2ccnc3cc(-c4ccnc(NCCCN5CCOCC5)c4)nn23)c1)c1cccc(C(F)(F)F)c1` [Example 258, N-[3-(2-{2-[(3-morpholin-4-ylpropyl)amino]pyridin-4-yl}pyrazolo[1,5-a]pyrimidin-7-yl)phenyl]-3-(trifluoromethyl)benzamide], the IC50 worked out at 0.134 µM and the “% Inhib./10 uM” value is given as 95%.

Consider `O=C(Nc1cccc(-c2ccnc3cc(-c4ccnc(NCCCN5CCCCC5)c4)nn23)c1)c1cccc(C(F)(F)F)c1` [Example 259, N-[3-(2-{2-[(3-piperidin-1-ylpropyl)amino]pyridin-4-yl}pyrazolo[1,5-a]pyrimidin-7-yl)phenyl]-3-(trifluoromethyl)benzamide], for which the inhibition at 10 µM was determined as 99%. For the same compound, under setting [1], the IC50 was determined as 0.0914 µM.

For `O=C(Nc1cccc(-c2ccnc3cc(-c4ccnc(NCCCN5CCCC5=O)c4)nn23)c1)c1cccc(C(F)(F)F)c1` [Example 261, N-{3-[2-(2-{[3-(2-oxopyrrolidin-1-yl)propyl]amino}pyridin-4-yl)pyrazolo[1,5-a]pyrimidin-7-yl]phenyl}-3-(trifluoromethyl)benzamide], the IC50 was found to be 0.113 µM and the inhibition at 10 µM is 94%.

In the case of `O=C(Nc1cccc(-c2ccnc3cc(-c4ccnc(NCCCn5ccnc5)c4)nn23)c1)c1cccc(C(F)(F)F)c1` [Example 262, N-{3-[2-(2-{[3-(1H-imidazol-1-yl)propyl]amino}pyridin-4-yl)pyrazolo[1,5-a]pyrimidin-7-yl]phenyl}-3-(trifluoromethyl)benzamide], the inhibition at 10 µM was 98%. The IC50 under setting [1] is 0.0655 µM.

For `O=C(Nc1cccc(-c2ccnc3cc(-c4ccnc(NCCN5CCC(O)CC5)c4)nn23)c1)c1cccc(C(F)(F)F)c1` [Example 263, N-{3-[2-(2-{[2-(4-hydroxypiperidin-1-yl)ethyl]amino}pyridin-4-yl)pyrazolo[1,5-a]pyrimidin-7-yl]phenyl}-3-(trifluoromethyl)benzamide], half-maximal inhibition (IC50) required 0.0658 µM and the “% Inhib./10 uM” value is recorded as 98%.

For the compound `O=C(Nc1cccc(-c2ccnc3cc(-c4ccnc(NCCN5CCCCC5)c4)nn23)c1)c1cccc(C(F)(F)F)c1` [Example 264, N-[3-(2-{2-[(2-piperidin-1-ylethyl)amino]pyridin-4-yl}pyrazolo[1,5-a]pyrimidin-7-yl)phenyl]-3-(trifluoromethyl)benzamide], the inhibition at 10 µM is 97%. The IC50 under setting [1] came to 0.0958 µM.

Regarding `CN(C)CCNc1cc(-c2cc3nccc(-c4cccc(NC(=O)c5cccc(C(F)(F)F)c5)c4)n3n2)ccn1` [Example 266, N-{3-[2-(2-{[2-(dimethylamino)ethyl]amino}pyridin-4-yl)pyrazolo[1,5-a]pyrimidin-7-yl]phenyl}-3-(trifluoromethyl)benzamide], inhibition was half-maximal at 0.0533 µM (IC50) and the “% Inhib./10 uM” value was found to be 100%.

As for `O=C(Nc1cccc(-c2ccnc3cc(-c4ccnc(NCCN5CCNC5=O)c4)nn23)c1)c1cccc(C(F)(F)F)c1` [Example 268, N-{3-[2-(2-{[2-(2-oxoimidazolidin-1-yl)ethyl]amino}pyridin-4-yl)pyrazolo[1,5-a]pyrimidin-7-yl]phenyl}-3-(trifluoromethyl)benzamide], the inhibition at 10 µM is 96%. The IC50 under setting [1] came to 0.11 µM.

Regarding `CN(CCCN)c1cc(-c2cc3nccc(-c4cccc(NC(=O)c5cccc(C(F)(F)F)c5)c4)n3n2)ccn1` [Example 269, N-[3-(2-{2-[(3-aminopropyl)(methyl)amino]pyridin-4-yl}pyrazolo[1,5-a]pyrimidin-7-yl)phenyl]-3-(trifluoromethyl)benzamide], the inhibition at 10 µM amounted to 78%. Besides, the IC50 under setting [1] was 2.79 µM.

In the case of `CN(CCN)c1cc(-c2cc3nccc(-c4cccc(NC(=O)c5cccc(C(F)(F)F)c5)c4)n3n2)ccn1` [Example 270, N-[3-(2-{2-[(2-aminoethyl)(methyl)amino]pyridin-4-yl}pyrazolo[1,5-a]pyrimidin-7-yl)phenyl]-3-(trifluoromethyl)benzamide], the inhibition at 10 µM came out at 80%. Further, the half-maximal inhibitory concentration (IC50) under setting [1] worked out at 2.06 µM.

`NC(=O)c1cccc(-c2cnn3c(-c4cccc(NC(=O)c5cccc(C(F)(F)F)c5)c4)ccnc23)c1` [Example 271, N-(3-{3-[3-(aminocarbonyl)phenyl]pyrazolo[1,5-a]pyrimidin-7-yl}phenyl)-3-(trifluoromethyl)benzamide]: the IC50 was determined as 0.057 µM and the inhibition at 10 µM was found to be 93%.

On to `CN(C)Cc1ccccc1-c1cnn2c(-c3cccc(NC(=O)c4cccc(C(F)(F)F)c4)c3)ccnc12` [Example 272, N-[3-(3-{2-[(dimethylamino)methyl]phenyl}pyrazolo[1,5-a]pyrimidin-7-yl)phenyl]-3-(trifluoromethyl)benzamide], for which the inhibition at 10 µM amounted to 92%. Under setting [1], the IC50 worked out at 0.117 µM.

In the case of `CN(C)Cc1cccc(-c2cnn3c(-c4cccc(NC(=O)c5cccc(C(F)(F)F)c5)c4)ccnc23)c1` [Example 273, N-[3-(3-{3-[(dimethylamino)methyl]phenyl}pyrazolo[1,5-a]pyrimidin-7-yl)phenyl]-3-(trifluoromethyl)benzamide], the inhibition at 10 µM was 97%. In addition, under setting [1], the IC50 was determined as 0.0438 µM.

For `O=C(Nc1cccc(-c2ccnc3c(-c4cn[nH]c4)cnn23)c1)c1cccc(C(F)(F)F)c1` [Example 275, N-{3-[3-(1H-pyrazol-4-yl)pyrazolo[1,5-a]pyrimidin-7-yl]phenyl}-3-(trifluoromethyl)benzamide], the IC50 amounted to 0.084 µM and the inhibition at 10 µM was 89%.

`CC(C)(C)OC(=O)n1cc(-c2cnn3c(-c4cccc(NC(=O)c5cccc(C(F)(F)F)c5)c4)ccnc23)cn1` [Example 276, tert-butyl 4-[7-(3-{[3-(trifluoromethyl)benzoyl]amino}phenyl)pyrazolo[1,5-a]pyrimidin-3-yl]-1H-pyrazole-1-carboxylate]: the inhibition at 10 µM turned out to be 58%. The IC50 under setting [1] was 2.06 µM.

With `Nc1ccc(-c2cnn3c(-c4cccc(NC(=O)c5cccc(C(F)(F)F)c5)c4)ccnc23)cn1` [Example 278, N-{3-[3-(6-aminopyridin-3-yl)pyrazolo[1,5-a]pyrimidin-7-yl]phenyl}-3-(trifluoromethyl)benzamide], the IC50 is 0.111 µM and the inhibition at 10 µM was 96%.

With `CN1CCN(CCCC#Cc2cnn3c(-c4cccc(NC(=O)c5cccc(C(F)(F)F)c5)c4)ccnc23)CC1` [Example 279, N-(3-{3-[5-(4-methylpiperazin-1-yl)pent-1-yn-1-yl]pyrazolo[1,5-a]pyrimidin-7-yl}phenyl)-3-(trifluoromethyl)benzamide], the IC50 worked out at 0.842 µM.

Take `CN(C)CCc1ccccc1-c1cnn2c(-c3cccc(NC(=O)c4cccc(C(F)(F)F)c4)c3)ccnc12` [Example 280, N-[3-(3-{2-[2-(dimethylamino)ethyl]phenyl}pyrazolo[1,5-a]pyrimidin-7-yl)phenyl]-3-(trifluoromethyl)benzamide]: the inhibition at 10 µM turned out to be 76%. Further, the IC50 under setting [1] came to 0.318 µM.

With `CN(C)CCc1cccc(-c2cnn3c(-c4cccc(NC(=O)c5cccc(C(F)(F)F)c5)c4)ccnc23)c1` [Example 281, N-[3-(3-{3-[2-(dimethylamino)ethyl]phenyl}pyrazolo[1,5-a]pyrimidin-7-yl)phenyl]-3-(trifluoromethyl)benzamide], the inhibition at 10 µM worked out at 98%. In addition, the IC50 under setting [1] is 0.0407 µM.

As to `O=C(Nc1cccc(-c2ccnc3c(C#CCCCN4CCOCC4)cnn23)c1)c1cccc(C(F)(F)F)c1` [Example 282, N-{3-[3-(5-morpholin-4-ylpent-1-yn-1-yl)pyrazolo[1,5-a]pyrimidin-7-yl]phenyl}-3-(trifluoromethyl)benzamide], the IC50 was 0.551 µM and the inhibition at 10 µM was 79%.

As to `CNc1ccc(-c2cnn3c(-c4cccc(NC(=O)c5cccc(C(F)(F)F)c5)c4)ccnc23)cn1` [Example 284, N-(3-{3-[6-(methylamino)pyridin-3-yl]pyrazolo[1,5-a]pyrimidin-7-yl}phenyl)-3-(trifluoromethyl)benzamide], the inhibition at 10 µM turned out to be 92%. The IC50 under setting [1] stood at 0.078 µM.

In the case of `O=C(Nc1cccc(-c2ccnc3c(-c4ccc(CO)cc4)cnn23)c1)c1cccc(C(F)(F)F)c1` [Example 285, N-(3-{3-[4-(hydroxymethyl)phenyl]pyrazolo[1,5-a]pyrimidin-7-yl}phenyl)-3-(trifluoromethyl)benzamide], the IC50 was determined as 0.0825 µM and the inhibition at 10 µM was 93%.

With `O=C(Nc1cccc(-c2ccnc3c(-c4cccc(CO)c4)cnn23)c1)c1cccc(C(F)(F)F)c1` [Example 286, N-(3-{3-[3-(hydroxymethyl)phenyl]pyrazolo[1,5-a]pyrimidin-7-yl}phenyl)-3-(trifluoromethyl)benzamide], inhibition was half-maximal at 0.145 µM (IC50) and the inhibition at 10 µM worked out at 77%.
